# Measured values reported in patent US20250134952A1, “METHODS FOR IMPROVING THE EFFICACY OF HDAC INHIBITOR THERAPY AND PREDICTING THE RESPONSE TO TREATMENT WITH HDAC INHIBITOR” (INSTITUT NATIONAL DE LA SANTÉ ET DE LA RECHERCHE MÉDICALE, priority 2021, published 2025).
# Assays:
# [1] = tested on: MCF7shctrl and MCF7shTau subclones; test: Apoptosis by flow cytometry of PI-positive and Annexin-V-positive cells; type: cell-based, human; conditions: 100 nM TSA, 48 h
# Description: FIG. 1: Tau inhibition increases MCF7 breast cancer cell line sensitivity to TSA. (A) Tau protein expression in MCF7, MCF7shctrl and shTau were quantify by Elisa. (B) Effect of 100 nM TSA (48 h) on cell death in the MCF7shctrl and MCF7shTau subclones. Cell death was determined by staining and flow cytometric analysis as described in the materials and methods. (C) Effect of 100 nM TSA (48 h) on apoptosis in the MCF7shctrl and MCF7shTau subclones. Apoptosis was determined by flow cytometric analysis of the PI-positive and Annexin-V-positive cells as described in the materials and methods. (D) Cell cycle distribution was determined by FACS analysis of combined propidium iodide and EdU staining in MCF7shctrl and MCF7shTau in the absence or presence 100 nM TSA, 48 h. Data are mean±SD **P<0.01***P<0.001. […]
# SH-SY5Y human neuroblastoma cells expressing Tau4R tagged with the streptavidin-binding peptide (SBP) (referred as SH-SY5Y-(SBP)Tau4R) (Chauderlier et al., 2018), SH-SY5Y-Tet-on-Tau4R, Hela cells, MCF7 and MDA-MB-231 were cultured in Dulbecco's Modified Eagle's Medium with 10% fetal bovine serum, 2 mM L-glutamine and 50 U/ml penicillin/streptomycin (Gibco) at 37° C. in 5% CO2 humidified air. […] For stable clones, luciferase activities were measured using the luciferase assay system (Promega) and normalized against protein concentration. […]
# [2] = tested on: MCF7shctrl and MCF7shTau; test: Cell cycle distribution by FACS (propidium iodide and EdU staining); type: cell-based, human; conditions: 100 nM TSA, 48 h
# Description: FIG. 1: Tau inhibition increases MCF7 breast cancer cell line sensitivity to TSA. (A) Tau protein expression in MCF7, MCF7shctrl and shTau were quantify by Elisa. (B) Effect of 100 nM TSA (48 h) on cell death in the MCF7shctrl and MCF7shTau subclones. Cell death was determined by staining and flow cytometric analysis as described in the materials and methods. (C) Effect of 100 nM TSA (48 h) on apoptosis in the MCF7shctrl and MCF7shTau subclones. Apoptosis was determined by flow cytometric analysis of the PI-positive and Annexin-V-positive cells as described in the materials and methods. (D) Cell cycle distribution was determined by FACS analysis of combined propidium iodide and EdU staining in MCF7shctrl and MCF7shTau in the absence or presence 100 nM TSA, 48 h. Data are mean±SD **P<0.01***P<0.001. All results are representative of three independent experiments.
# SH-SY5Y human neuroblastoma cells expressing Tau4R tagged with the streptavidin-binding peptide (SBP) (referred as SH-SY5Y-(SBP)Tau4R) (Chauderlier et al., 2018), SH-SY5Y-Tet-on-Tau4R, Hela cells, MCF7 and MDA-MB-231 were cultured in Dulbecco's Modified Eagle's Medium with 10% fetal bovine serum, 2 mM L-glutamine and 50 U/ml penicillin/streptomycin (Gibco) at 37° C. in 5% CO2 humidified air. Transient and stable transfections experiments were performed using the lipofectamine 3000 reagent (Invitrogen). Transient luciferase assays were performed with the dual-luciferase assay system (Promega). For stable clones, luciferase activities were measured using the luciferase assay system (Promega) and normalized against protein concentration. […]
# Cell cycle, Cell death and Apoptosis were analyzed with the Click-It Plus EdU Alexa Fluor 647 kit (Thermofisher), Zombie NIR dye (Zombie NIR Fixable Viability Kit—Biolegend) and Annexin V-FITC Apoptosis Detection Kit II (Calbiochem) according to the manufacturer's guideline. Fluorescence was analyzed using a LSR FORTESSA X20 cytometer (Becton Dickinson).
# [3] = tested on: GAL4UAS responsive luciferase reporter Hela stable cell line; test: GAL4UAS responsive luciferase reporter assay; type: cell-based; conditions: for reduction of luciferase activity by Tau4R overexpression: wild-type Tau4R transfected
# Description: (A) Representative confocal sections of MCF7shctrl and shTau cells untreated or treated with 100 nM TSA for 24 h. […] (B) Quantification of HP1α clusters per nuclei visualized as described previously and realized on three independent experiments. (C) GADD45a and (D) p21 (CDKN1a) expression in MCF7shctrl and shTau cells untreated or treated with 100 nM TSA for 24 h were analyzed by real-time PCR and normalized to RPLO. Results are expressed, relative to the basal activity set to 1, as the mean±SD of three independent assays. (E) Tau tethering prevents adjacent reporter gene activity induced by TSA. GAL4UAS responsive luciferase reporter Hela stable cell line was transfected with GAL4DBD (GAL4) or GAL4DBD-Tau4R and then, 24 h later, treated with TSA (600 nM) for 24 h. The luciferase activity was determined as described in the Materials and Methods. (F) Ectopic Tau4R expression prevents adjacent reporter gene activity induced by TSA. The GAL4UAS responsive luciferase reporter Hela stable cell line was transfected with a plasmid encoding Tau4R for 24 h. Then, cells were treated with an increasing concentration of TSA, as indicated for 24 h. The luciferase activity was determined as described in the Materials and Methods. Data are mean±SD **P<0.01***P<0.001 vs. control.
# SH-SY5Y human neuroblastoma cells expressing Tau4R tagged with the streptavidin-binding peptide (SBP) (referred as SH-SY5Y-(SBP)Tau4R) (Chauderlier et al., 2018), SH-SY5Y-Tet-on-Tau4R, Hela cells, MCF7 and MDA-MB-231 were cultured in Dulbecco's Modified Eagle's Medium with 10% fetal bovine serum, 2 mM L-glutamine and 50 U/ml penicillin/streptomycin (Gibco) at 37° C. in 5% CO2 humidified air. Transient and stable transfections experiments were performed using the lipofectamine 3000 reagent (Invitrogen). Transient luciferase assays were performed with the dual-luciferase assay system (Promega). For stable clones, luciferase activities were measured using the luciferase assay system (Promega) and normalized against protein concentration. To isolate stably transfected clones, Hela cells were transfected with the pGL4.31[luc2P/GAL4 UAS/Hygro](referred to as the GAL4UAS stable Hela cell line) and selected with hygromycin (200 μg/ml). Of 6 clones tested for reporter activity, one clone was chosen for further studies. MCF7 and MDA-MB-231 cells were transfected with short hairpin Tau or RNA Ctrl vectors and selected with puromycin ([…]). Clones were isolated and tested for Tau expression.
# To directly probe how Tau prevents TSA-induced chromatin remodeling and gene expression, we next used Hela cells as they lack endogenous Tau. First, we generated a stable GAL4UAS-responsive luciferase reporter Hela clone that we subsequently selected for trichostatin-induced luciferase activity. In our preliminary experiments we found the lowest dose of TSA inducing maximal luciferase activity was 600 nM and we used this concentration in the following experiments. In addition, by performing salt extraction on nuclei, we found only Tau4R isoforms were tightly bound to chromatin and could potentially impact directly on chromatin structure (data not shown). We therefore targeted Tau4R to UAS responsive elements by fusing Tau4R to the heterologous DNA-binding domain GAL4 and transfected this plasmid into Hela stable clone. […] We next wondered if this effect was due to the tethering of Tau4R to the promoter or whether this was independent of Tau4R fusion to GAL4. […]
structure (smiles),measurement,setting,value
"CC(/C=C/C(=O)NO)=C\[C@@H](C)C(=O)c1ccc(N(C)C)cc1 [TSA, 2,4-Heptadienamide, 7-[4-(dimethylamino)phenyl]-N-hydroxy-4,6-dimethyl-7-oxo-, (2E,4E,6R)-]",apoptosis,[1]; Tau-knockdown cells (MCF7shTau),48%
same,apoptosis,[1]; sh-ctrl cells (MCF7shctrl),30%
same,cells in G1,[2]; MCF7shTau,41.4%
same,cells in G1,[2]; MCF7shctrl,39.6%
same,cells in S-phase,[2]; MCF7shctrl,19.2%
same,reduction of luciferase activity by Tau4R overexpression,"[3]; 100 nM TSA, 24 h",around 50%
same,reduction of luciferase activity by Tau4R overexpression,"[3]; 300 nM TSA, 24 h",around 50%
same,reduction of luciferase activity by Tau4R overexpression,"[3]; 600 nM TSA, 24 h",no reduction
same,reduction of TSA-induced luciferase activity in the presence of GAL-Tau4R,"[3]; TSA 600 nM, 24 h, GAL4DBD-Tau4R transfected",50%
same,lowest dose of TSA inducing maximal luciferase activity,"[3]; preliminary experiments, Hela stable clone",600 nM
